Results reported in PMC11445181 (Frontiers in Plant Science, 2024).

Biological target: T1, LcCOMT (Conioselinum anthriscoides, UniProt A0A0K1YW34)
T1 construct: full-length cDNA in pET28a, His-tagged, E. coli BL21 (DE3), Ni-agarose purified; homodimer (N-terminal dimerization domain)
T1 sequence (A0A0K1YW34 1-362): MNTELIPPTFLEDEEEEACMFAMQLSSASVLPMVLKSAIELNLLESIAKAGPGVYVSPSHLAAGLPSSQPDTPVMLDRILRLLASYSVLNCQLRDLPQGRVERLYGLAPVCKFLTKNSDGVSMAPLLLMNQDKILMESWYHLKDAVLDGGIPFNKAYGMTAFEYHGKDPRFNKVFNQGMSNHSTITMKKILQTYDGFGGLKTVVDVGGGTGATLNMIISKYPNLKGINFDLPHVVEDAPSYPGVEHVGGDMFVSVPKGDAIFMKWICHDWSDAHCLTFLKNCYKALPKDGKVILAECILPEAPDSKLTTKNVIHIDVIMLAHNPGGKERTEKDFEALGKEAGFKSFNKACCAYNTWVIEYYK
Assay: inhibition of N-acetylserotonin methylation
Assay type: biochemical
Details: 2.0 mM N-acetylserotonin; caffeic acid is itself a substrate (competing substrate)

SMILES: O=C(O)/C=C/c1ccc(O)c(O)c1 [caffeic acid]
- % reduction in activity at 1.0 mM: 31.80%
